Experimental data taken from US6358885B1, “Substituted phenylheterocyclic herbicides” (Mississippi State University, priority 1992, dated 2002).

Assays:
[1] = test system: wheat; assay: Test C preemergence/postemergence greenhouse plant response rating 0 to 100; type: in vivo, Triticum aestivum; settings: POSTEMERGENCE; for Plant response rating, Wheat: 0 to 100 scale
In short: (§1)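 Compounds in non-phytotoxic solvent applied preemergence to sandy loam one day after planting, postemergence at the 1–4 leaf stage, or to ~2.5 cm floodwater over silt loam.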

[2] = test system: ryegrass; assay: as above; type: in vivo, Lolium multiflorum; settings: POSTEMERGENCE; for Plant response rating Ryegrass: 0 to 100 scale
In short: as §1

[3] = test system: pigweed; assay: as above; type: in vivo, Amaranthusretroflexus; settings: POSTEMERGENCE; for Plant response rating Pigweed: 0 to 100 scale
In short: as §1

[4] = test system: cocklebur; assay: Test B preemergence/postemergence greenhouse plant response rating 0 to 10; type: in vivo, Xanthium pensylvanicum; settings: 0 to 10 scale
In short: (§2)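 Postemergence treatment of plants two to eighteen cm tall ran alongside preemergence treatment of planted seed, each using compound in a non-phytotoxic solvent.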

[5] = test system: barnyardgrass; assay: Test C flood test plant response rating 0 to 100; type: in vivo, Echinochloa crus-galli; settings: for Plant response rating, Barnyardgrass: flood test species listed under POSTEMERGENCE, 0 to 100 scale
In short: as §1

[6] = test system: wild oat; assay: Test B preemergence/postemergence greenhouse plant response rating 0 to 10; type: in vivo, Avena fatua; settings: 0 to 10 scale
In short: as §2

[7] = test system: blackgrass; assay: as above; type: in vivo, Alopecurus myosuroides; settings: 0 to 10 scale
In short: as §2

[8] = test system: cotton; assay: Test C preemergence/postemergence greenhouse plant response rating 0 to 100; type: in vivo, Gossypium hirsutum; settings: POSTEMERGENCE; for Plant response rating, Cotton: 0 to 100 scale
In short: as §1

[9] = test system: bedstraw; assay: Test B preemergence/postemergence greenhouse plant response rating 0 to 10; type: in vivo, Galium aparine; settings: 0 to 10 scale
In short: as §2

[10] = test system: blackgrass; assay: Test C preemergence/postemergence greenhouse plant response rating 0 to 100; type: in vivo, Alopecurus myosuroides; settings: POSTEMERGENCE; for Plant response rating, Blackgrass: 0 to 100 scale
In short: as §1

[11] = test system: morningglory; assay: Test B preemergence/postemergence greenhouse plant response rating 0 to 10; type: in vivo, Ipomoea hederacea; settings: 0 to 10 scale
In short: as §2

[12] = test system: sugar beet; assay: as above; type: in vivo, Beta vulgaris; settings: 0 to 10 scale
In short: as §2

C#CC(C)N1C(=O)COc2cc(F)c(-c3nn4c(c3Cl)CCCC4)cc21 (centres unmarked) [Compound 50]
100: Plant response rating Pigweed ([3]; 62 g/ha) | Plant response rating Pigweed ([3]; 250 g/ha) | Plant response rating (0 to 100), Pigweed ([3]; Rate 4 g/ha) | Plant response rating (0 to 100), Pigweed ([3]; Rate 16 g/ha) | Plant response rating, Barnyardgrass ([5]; 250 g/ha) | Plant response rating, Cotton ([8]; 62 g/ha) | Plant response rating, Cotton ([8]; 250 g/ha) | Plant response rating (0 to 100), Cotton ([8]; Rate 4 g/ha) | Plant response rating (0 to 100), Cotton ([8]; Rate 16 g/ha)
0: Plant response rating (0 to 100), Wheat ([1]; Rate 1 g/ha) | Plant response rating (0 to 100), Ryegrass ([2]; Rate 1 g/ha) | Plant response rating, Cocklebur ([4]; PREEMERGENCE, Rate 10 g/ha) | Plant response rating, Cocklebur ([4]; PREEMERGENCE, Rate 50 g/ha)
30: Plant response rating (0 to 100), Wheat ([1]; Rate 16 g/ha) | Plant response rating (0 to 100), Ryegrass ([2]; Rate 16 g/ha) | Plant response rating (0 to 100), Blackgrass ([10]; Rate 4 g/ha)
70: Plant response rating (0 to 100), Barnyardgrass ([5]; Rate 16 g/ha, under POSTEMERGENCE head (flood test species)) | Plant response rating (0 to 100), Cotton ([8]; Rate 1 g/ha)
40: Plant response rating Ryegrass ([2]; 62 g/ha)
20: Plant response rating (0 to 100), Wheat ([1]; Rate 4 g/ha) | Plant response rating (0 to 100), Ryegrass ([2]; Rate 4 g/ha) | Plant response rating (0 to 100), Blackgrass ([10]; Rate 1 g/ha)
85: Plant response rating (0 to 100), Pigweed ([3]; Rate 1 g/ha)
95: Plant response rating, Barnyardgrass ([5]; 62 g/ha)
4: Plant response rating, Wild oat ([6]; POSTEMERGENCE, Rate 50 g/ha) | Plant response rating, Blackgrass ([7]; PREEMERGENCE, Rate 10 g/ha)
9: Plant response rating, Cocklebur ([4]; POSTEMERGENCE, Rate 10 g/ha)
10: Plant response rating, Cocklebur ([4]; POSTEMERGENCE, Rate 50 g/ha) | Plant response rating, Bedstraw ([9]; POSTEMERGENCE, Rate 10 g/ha) | Plant response rating, Bedstraw ([9]; POSTEMERGENCE, Rate 50 g/ha) | Plant response rating, Bedstraw ([9]; PREEMERGENCE, Rate 50 g/ha) | Plant response rating, Morningglory ([11]; POSTEMERGENCE, Rate 10 g/ha) | Plant response rating, Morningglory ([11]; POSTEMERGENCE, Rate 50 g/ha) | Plant response rating, Sugar beet ([12]; POSTEMERGENCE, Rate 10 g/ha) | Plant response rating, Sugar beet ([12]; POSTEMERGENCE, Rate 50 g/ha) | Plant response rating, Sugar beet ([12]; PREEMERGENCE, Rate 50 g/ha)
6: Plant response rating, Blackgrass ([7]; POSTEMERGENCE, Rate 10 g/ha) | Plant response rating, Blackgrass ([7]; POSTEMERGENCE, Rate 50 g/ha) | Plant response rating, Blackgrass ([7]; PREEMERGENCE, Rate 50 g/ha)
50: Plant response rating, Wheat ([1]; 62 g/ha) | Plant response rating Ryegrass ([2]; 250 g/ha) | Plant response rating (0 to 100), Blackgrass ([10]; Rate 16 g/ha)
3: Plant response rating, Wild oat ([6]; POSTEMERGENCE, Rate 10 g/ha) | Plant response rating, Wild oat ([6]; PREEMERGENCE, Rate 50 g/ha) | Plant response rating, Bedstraw ([9]; PREEMERGENCE, Rate 10 g/ha)
2: Plant response rating, Morningglory ([11]; PREEMERGENCE, Rate 50 g/ha)
60: Plant response rating, Wheat ([1]; 250 g/ha) | Plant response rating (0 to 100), Barnyardgrass ([5]; POSTEMERGENCE section, flood test, Rate 4 g/ha) | Plant response rating, Blackgrass ([10]; 62 g/ha) | Plant response rating, Blackgrass ([10]; 250 g/ha)
